From ChEMBL document CHEMBL3885861, “Open TG-GATES”

Species on record: Rattus norvegicus
Experiment: Open TG-GATES - Regimen: Single
Type: toxicity, organism-based, Sprague-Dawley
Set-up: regimen Single, gender Male, age 6 weeks
Details: in vivo, po, 500 mg/kg, route gavage, dose level High; for APTT / Bas / Eos / Fbg / Hb / Ht / Lym / MCH / MCHC / MCV / Mono / Neu / PT / Plat / RBC / Ret / WBC: tissue Blood; for KIDNEY_L / KIDNEY_R / KIDNEY_TOTAL: tissue Kidney; for LIVER: tissue Liver; for A/G / ALP / ALT / AST / BUN / CRE / Ca / Cl / DBIL / GLC / IP / K / LDH / Na / PL / RALB / TBIL / TC / TG / TP / gamma-GTP: tissue Plasma

Structure (SMILES): CN1C(=O)CCS(=O)(=O)C1c1ccc(Cl)cc1 (configuration not stated) [CHLORMEZANONE]
- TERMINAL_BW (3 h): 225.7 g
- APTT (3 h): 17.2 s
- Bas (3 h): 0%
- Eos (3 h): 1%
- Fbg (3 h): 308.4 mg/dL
- Hb (3 h): 13.4 g/dL
- Ht (3 h): 40.2%
- Lym (3 h): 72.8%
- MCH (3 h): 21.9 pg
- MCHC (3 h): 33.4%
- MCV (3 h): 65.4 fL
- Mono (3 h): 3.8%
- Neu (3 h): 21.8%
- PT (3 h): 13.2 s
- Plat (3 h): 113.8 x10_4/uL
- RBC (3 h): 614.4 x10_4/ul
- Ret (3 h): 8.6%
- WBC (3 h): 42.6 x10_2/uL
- KIDNEY_L (3 h): 1 g
- KIDNEY_R (3 h): 1 g
- KIDNEY_TOTAL (3 h): 2 g
- LIVER (3 h): 9.8 g
- A/G (3 h): 0.9
- ALP (3 h): 1556.6 IU/L
- ALT (3 h): 41.2 IU/L
- AST (3 h): 63.6 IU/L
- BUN (3 h): 9.6 mg/dL
- CRE (3 h): 0.1 mg/dL
- Ca (3 h): 10.8 mg/dL
- Cl (3 h): 102 meq/L
- DBIL (3 h): 0.012 mg/dL
- GLC (3 h): 212.4 mg/dL
- IP (3 h): 10.3 mg/dL
- K (3 h): 3.9 meq/L
- LDH (3 h): 54.2 IU/L
- Na (3 h): 140.8 meq/L
- PL (3 h): 145 mg/dL
- RALB (3 h): 2.5 g/dL
- TBIL (3 h): 0.038 mg/dL
- TC (3 h): 76.4 mg/dL
- TG (3 h): 63.6 mg/dL
- TP (3 h): 5.3 g/dL
- gamma-GTP (3 h): 1 IU/L
- TERMINAL_BW (6 h): 226.3 g
- APTT (6 h): 16.7 s
- Bas (6 h): 0%
- Eos (6 h): 1%
- Fbg (6 h): 340.6 mg/dL
- Hb (6 h): 13.2 g/dL
- Ht (6 h): 39.2%
- Lym (6 h): 72.6%
- MCH (6 h): 21.2 pg
- MCHC (6 h): 33.8%
- MCV (6 h): 62.7 fL
- Mono (6 h): 2.6%
- Neu (6 h): 23.4%
- PT (6 h): 13.6 s
- Plat (6 h): 111.4 x10_4/uL
- RBC (6 h): 625.4 x10_4/ul
- Ret (6 h): 8.1%
- WBC (6 h): 28.5 x10_2/uL
- KIDNEY_L (6 h): 0.9 g
- KIDNEY_R (6 h): 0.9 g
- KIDNEY_TOTAL (6 h): 1.9 g
- LIVER (6 h): 9.9 g
- A/G (6 h): 0.9
- ALP (6 h): 1317.4 IU/L
- ALT (6 h): 44 IU/L
- AST (6 h): 66.8 IU/L
- BUN (6 h): 8 mg/dL
- CRE (6 h): 0.1 mg/dL
- Ca (6 h): 10.8 mg/dL
- Cl (6 h): 101.2 meq/L
- DBIL (6 h): 0.006 mg/dL
- GLC (6 h): 218.4 mg/dL
- IP (6 h): 10.6 mg/dL
- K (6 h): 3.6 meq/L
- LDH (6 h): 56.4 IU/L
- Na (6 h): 139.6 meq/L
- PL (6 h): 160 mg/dL
- RALB (6 h): 2.5 g/dL
- TBIL (6 h): 0.03 mg/dL
- TC (6 h): 93.2 mg/dL
- TG (6 h): 39.6 mg/dL
- TP (6 h): 5.4 g/dL
- gamma-GTP (6 h): 1 IU/L
- TERMINAL_BW (9 h): 229 g
- APTT (9 h): 16.4 s
- Bas (9 h): 0%
- Eos (9 h): 0.6%
- Fbg (9 h): 317.8 mg/dL
- Hb (9 h): 13.4 g/dL
- Ht (9 h): 39.2%
- Lym (9 h): 68.8%
- MCH (9 h): 21.9 pg
- MCHC (9 h): 34.2%
- MCV (9 h): 64 fL
- Mono (9 h): 2.8%
- Neu (9 h): 27.6%
- PT (9 h): 13.6 s
- Plat (9 h): 127.7 x10_4/uL
- RBC (9 h): 613 x10_4/ul
- Ret (9 h): 8.1%
- WBC (9 h): 40.7 x10_2/uL
- KIDNEY_L (9 h): 1 g
- KIDNEY_R (9 h): 1 g
- KIDNEY_TOTAL (9 h): 1.9 g
- LIVER (9 h): 10.1 g
- A/G (9 h): 0.9
- ALP (9 h): 1555.8 IU/L
- ALT (9 h): 39.8 IU/L
- AST (9 h): 66 IU/L
- BUN (9 h): 10 mg/dL
- CRE (9 h): 0.1 mg/dL
- Ca (9 h): 11 mg/dL
- Cl (9 h): 100.4 meq/L
- DBIL (9 h): 0.014 mg/dL
- GLC (9 h): 255.4 mg/dL
- IP (9 h): 10.3 mg/dL
- K (9 h): 3.8 meq/L
- LDH (9 h): 66.4 IU/L
- Na (9 h): 139 meq/L
- PL (9 h): 165.8 mg/dL
- RALB (9 h): 2.6 g/dL
- TBIL (9 h): 0.034 mg/dL
- TC (9 h): 90.6 mg/dL
- TG (9 h): 89.8 mg/dL
- TP (9 h): 5.5 g/dL
- gamma-GTP (9 h): 1.2 IU/L
- TERMINAL_BW (24 h): 214.2 g
- APTT (24 h): 21.3 s
- Bas (24 h): 0%
- Eos (24 h): 0.6%
- Fbg (24 h): 258.6 mg/dL
- Hb (24 h): 14.2 g/dL
- Ht (24 h): 40.4%
- Lym (24 h): 73.4%
- MCH (24 h): 21.7 pg
- MCHC (24 h): 35.2%
- MCV (24 h): 61.9 fL
- Mono (24 h): 4%
- Neu (24 h): 21.8%
- PT (24 h): 14.3 s
- Plat (24 h): 121 x10_4/uL
- RBC (24 h): 653.6 x10_4/ul
- Ret (24 h): 7.3%
- WBC (24 h): 73.2 x10_2/uL
- KIDNEY_L (24 h): 0.9 g
- KIDNEY_R (24 h): 0.9 g
- KIDNEY_TOTAL (24 h): 1.9 g
- LIVER (24 h): 9.7 g
- A/G (24 h): 0.8
- ALP (24 h): 1746 IU/L
- ALT (24 h): 46.2 IU/L
- AST (24 h): 89.6 IU/L
- BUN (24 h): 14.2 mg/dL
- CRE (24 h): 0.2 mg/dL
- Ca (24 h): 11.2 mg/dL
- Cl (24 h): 104.6 meq/L
- DBIL (24 h): 0.048 mg/dL
- GLC (24 h): 193.2 mg/dL
- IP (24 h): 8 mg/dL
- K (24 h): 3.9 meq/L
- LDH (24 h): 113 IU/L
- Na (24 h): 142 meq/L
- PL (24 h): 146.2 mg/dL
- RALB (24 h): 2.6 g/dL
- TBIL (24 h): 0.058 mg/dL
- TC (24 h): 69.6 mg/dL
- TG (24 h): 239.2 mg/dL
- TP (24 h): 5.8 g/dL
- gamma-GTP (24 h): 1 IU/L
